Values of other authors in patent US9993449B2, “(S)-3-amino-4-(difluoromethylenyl)cyclopent-1-ene-1-carboxylic acid, and related compounds as GABA aminotransferase inactivators for the treatment of epilepsy, addiction and hepatocellular carcinoma” (NORTHWESTERN UNIVERSITY, priority 2015, dated 2018).

Experiments:
[1] = system: glucose metabolism in the hippocampus; settings: previous similar tests; cited from earlier work
[2] = system: release of dopamine in the NAcc; settings: freely moving rats after 20 mg/kg cocaine; cited from earlier work
[3] = target: T1, CYP2C8 (Homo sapiens, UniProt P10632); settings: earlier finding for CPP-115; cited from earlier work
T1 construct: tissue Eurofins Panlabs; host or cells: human liver microsomes
T1 sequence (P10632 1-490): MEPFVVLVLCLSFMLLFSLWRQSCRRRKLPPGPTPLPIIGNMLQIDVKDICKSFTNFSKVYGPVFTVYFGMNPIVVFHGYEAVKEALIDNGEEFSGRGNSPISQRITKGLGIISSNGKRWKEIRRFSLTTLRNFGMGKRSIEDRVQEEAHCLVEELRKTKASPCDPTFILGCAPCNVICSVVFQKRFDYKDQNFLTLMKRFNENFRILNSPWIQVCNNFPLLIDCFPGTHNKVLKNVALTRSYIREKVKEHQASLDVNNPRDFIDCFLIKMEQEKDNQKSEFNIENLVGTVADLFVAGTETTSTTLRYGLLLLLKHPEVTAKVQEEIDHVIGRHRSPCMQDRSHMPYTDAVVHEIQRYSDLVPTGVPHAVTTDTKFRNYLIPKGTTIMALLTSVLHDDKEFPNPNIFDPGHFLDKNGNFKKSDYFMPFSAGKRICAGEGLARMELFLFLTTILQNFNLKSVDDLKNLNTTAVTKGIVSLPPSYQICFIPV

[4] = system: alanine aminotransferase (Ala-AT); settings: reported; cited from earlier work
[5] = system: striatal dopamine levels; settings: previous similar tests; cited from earlier work
[6] = system: CYP3A; settings: earlier finding for CPP-115; cited from earlier work
[7] = target: T2, hERG channel (Homo sapiens, UniProt Q12809); settings: earlier finding for CPP-115; cited from earlier work
T2 construct: host or cells: CHO-K1
T2 sequence (Q12809 whole entry): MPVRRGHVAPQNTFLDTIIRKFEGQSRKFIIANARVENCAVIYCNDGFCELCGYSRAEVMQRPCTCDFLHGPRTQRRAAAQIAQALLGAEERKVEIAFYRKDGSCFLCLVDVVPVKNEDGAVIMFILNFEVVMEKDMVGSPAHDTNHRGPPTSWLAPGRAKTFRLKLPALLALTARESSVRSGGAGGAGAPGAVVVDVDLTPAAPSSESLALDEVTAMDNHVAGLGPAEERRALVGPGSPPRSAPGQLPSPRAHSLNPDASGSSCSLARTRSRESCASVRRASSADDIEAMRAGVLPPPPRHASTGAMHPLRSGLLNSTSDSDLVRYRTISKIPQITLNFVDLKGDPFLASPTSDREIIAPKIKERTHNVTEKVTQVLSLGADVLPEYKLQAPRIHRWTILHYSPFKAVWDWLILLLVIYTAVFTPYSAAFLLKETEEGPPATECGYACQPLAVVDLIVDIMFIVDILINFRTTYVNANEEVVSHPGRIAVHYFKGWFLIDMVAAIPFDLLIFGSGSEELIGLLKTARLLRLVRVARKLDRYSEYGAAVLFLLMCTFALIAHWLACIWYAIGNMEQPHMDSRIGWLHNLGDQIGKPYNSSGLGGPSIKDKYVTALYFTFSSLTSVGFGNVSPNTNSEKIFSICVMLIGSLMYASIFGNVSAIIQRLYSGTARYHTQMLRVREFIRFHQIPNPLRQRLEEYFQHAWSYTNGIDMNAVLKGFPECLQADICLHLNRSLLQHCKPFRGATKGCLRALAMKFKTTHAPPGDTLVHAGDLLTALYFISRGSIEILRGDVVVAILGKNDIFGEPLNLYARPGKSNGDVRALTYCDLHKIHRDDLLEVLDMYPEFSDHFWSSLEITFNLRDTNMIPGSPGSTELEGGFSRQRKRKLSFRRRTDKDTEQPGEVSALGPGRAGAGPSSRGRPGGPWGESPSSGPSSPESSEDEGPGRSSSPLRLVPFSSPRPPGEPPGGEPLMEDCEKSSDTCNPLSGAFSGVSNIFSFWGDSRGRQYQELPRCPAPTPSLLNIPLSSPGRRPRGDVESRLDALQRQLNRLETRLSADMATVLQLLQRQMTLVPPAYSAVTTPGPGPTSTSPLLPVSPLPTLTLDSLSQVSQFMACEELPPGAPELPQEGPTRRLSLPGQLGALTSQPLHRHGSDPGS

[8] = in vivo; cited from earlier work
[9] = target: T3, CYP2B6 (Homo sapiens, UniProt P20813); settings: earlier finding for CPP-115; cited from earlier work
T3 construct: tissue Eurofins Panlabs; host or cells: human liver microsomes
T3 sequence (P20813 1-491): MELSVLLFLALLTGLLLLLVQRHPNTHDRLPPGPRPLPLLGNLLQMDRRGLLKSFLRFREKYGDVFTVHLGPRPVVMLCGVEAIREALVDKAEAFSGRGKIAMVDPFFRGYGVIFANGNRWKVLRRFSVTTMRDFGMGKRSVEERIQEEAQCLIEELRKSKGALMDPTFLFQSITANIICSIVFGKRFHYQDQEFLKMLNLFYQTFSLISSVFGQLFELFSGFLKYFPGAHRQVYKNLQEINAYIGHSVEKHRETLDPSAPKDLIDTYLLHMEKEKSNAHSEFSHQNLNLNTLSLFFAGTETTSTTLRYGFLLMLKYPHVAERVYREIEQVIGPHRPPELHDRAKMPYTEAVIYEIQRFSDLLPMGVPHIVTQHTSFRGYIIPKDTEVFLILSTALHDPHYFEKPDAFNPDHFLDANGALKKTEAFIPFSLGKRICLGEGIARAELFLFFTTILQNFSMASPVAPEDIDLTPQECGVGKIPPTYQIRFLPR

[10] = target: T4, CYP1A (Homo sapiens, UniProt P05177); settings: earlier finding for CPP-115; cited from earlier work
T4 construct: tissue Eurofins Panlabs; host or cells: human liver microsomes
T4 sequence (P05177 1-516): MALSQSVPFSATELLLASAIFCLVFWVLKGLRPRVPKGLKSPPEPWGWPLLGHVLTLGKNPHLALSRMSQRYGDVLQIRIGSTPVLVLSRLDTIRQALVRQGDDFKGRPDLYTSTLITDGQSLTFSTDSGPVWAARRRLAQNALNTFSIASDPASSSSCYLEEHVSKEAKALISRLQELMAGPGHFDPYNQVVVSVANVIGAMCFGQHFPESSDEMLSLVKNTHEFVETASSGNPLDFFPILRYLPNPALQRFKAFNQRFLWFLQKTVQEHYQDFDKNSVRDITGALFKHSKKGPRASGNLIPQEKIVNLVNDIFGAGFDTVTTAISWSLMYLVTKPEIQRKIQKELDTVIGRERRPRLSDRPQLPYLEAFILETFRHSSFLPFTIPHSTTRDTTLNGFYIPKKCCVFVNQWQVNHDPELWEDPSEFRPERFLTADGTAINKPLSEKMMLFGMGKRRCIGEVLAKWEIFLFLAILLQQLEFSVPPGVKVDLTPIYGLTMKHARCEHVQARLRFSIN

[11] = system: infantile spasms; settings: multiple-hit rat model; cited from earlier work
[12] = target: T5, CYP2C9 (Homo sapiens, UniProt P11712); settings: earlier finding for CPP-115; cited from earlier work
T5 construct: tissue Eurofins Panlabs; host or cells: human liver microsomes
T5 sequence (P11712 whole entry): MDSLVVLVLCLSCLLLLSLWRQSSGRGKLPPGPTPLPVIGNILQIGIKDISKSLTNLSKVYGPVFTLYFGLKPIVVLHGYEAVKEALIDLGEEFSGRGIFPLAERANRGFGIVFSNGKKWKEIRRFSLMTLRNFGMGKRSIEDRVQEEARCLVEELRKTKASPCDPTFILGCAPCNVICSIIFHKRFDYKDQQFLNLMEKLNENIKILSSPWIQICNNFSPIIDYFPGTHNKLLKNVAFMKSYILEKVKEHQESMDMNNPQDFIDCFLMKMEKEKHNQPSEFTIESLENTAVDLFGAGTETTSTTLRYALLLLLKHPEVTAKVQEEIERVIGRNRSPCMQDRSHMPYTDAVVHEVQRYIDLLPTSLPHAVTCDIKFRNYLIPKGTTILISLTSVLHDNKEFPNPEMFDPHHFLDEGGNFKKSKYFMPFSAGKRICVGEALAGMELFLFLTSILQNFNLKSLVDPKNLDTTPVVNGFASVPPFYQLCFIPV

[13] = target: T6, CYP2C19 (Homo sapiens, UniProt P33261); settings: earlier finding for CPP-115; cited from earlier work
T6 construct: tissue Eurofins Panlabs; host or cells: human liver microsomes
T6 sequence (P33261 whole entry): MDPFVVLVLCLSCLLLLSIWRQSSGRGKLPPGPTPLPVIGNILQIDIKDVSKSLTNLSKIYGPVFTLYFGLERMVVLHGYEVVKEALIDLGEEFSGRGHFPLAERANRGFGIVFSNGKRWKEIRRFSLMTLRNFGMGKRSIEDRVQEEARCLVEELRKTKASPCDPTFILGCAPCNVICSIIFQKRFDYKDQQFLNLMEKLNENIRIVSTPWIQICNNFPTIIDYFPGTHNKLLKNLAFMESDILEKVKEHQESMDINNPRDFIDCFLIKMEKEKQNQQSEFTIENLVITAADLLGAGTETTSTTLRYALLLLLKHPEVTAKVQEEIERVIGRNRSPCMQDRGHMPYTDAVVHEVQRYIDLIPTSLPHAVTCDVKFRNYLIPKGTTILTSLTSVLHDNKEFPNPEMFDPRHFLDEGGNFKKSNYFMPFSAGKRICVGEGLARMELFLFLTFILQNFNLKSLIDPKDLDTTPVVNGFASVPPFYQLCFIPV

[14] = target: T7, ornithine aminotransferase (OAT) (Homo sapiens, UniProt P04181); settings: reported; cited from earlier work
T7 sequence (P04181 26-439): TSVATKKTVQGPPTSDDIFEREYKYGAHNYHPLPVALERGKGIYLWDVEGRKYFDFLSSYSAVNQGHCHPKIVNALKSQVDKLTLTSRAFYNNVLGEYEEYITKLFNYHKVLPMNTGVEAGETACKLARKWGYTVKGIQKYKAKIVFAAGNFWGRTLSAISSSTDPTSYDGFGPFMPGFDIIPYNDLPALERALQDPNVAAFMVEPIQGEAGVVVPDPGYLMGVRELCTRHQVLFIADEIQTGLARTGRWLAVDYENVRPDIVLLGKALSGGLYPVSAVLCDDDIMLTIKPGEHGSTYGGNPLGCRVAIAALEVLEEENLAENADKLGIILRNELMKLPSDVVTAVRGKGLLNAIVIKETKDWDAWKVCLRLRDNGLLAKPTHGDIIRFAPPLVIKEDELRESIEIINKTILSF

[15] = system: aspartate aminotransferase (Asp-AT); settings: reported; cited from earlier work
[16] = target: T8, CYP2D6 (Homo sapiens, UniProt P10635); settings: earlier finding for CPP-115; cited from earlier work
T8 construct: tissue Eurofins Panlabs; host or cells: human liver microsomes
T8 sequence (P10635 whole entry): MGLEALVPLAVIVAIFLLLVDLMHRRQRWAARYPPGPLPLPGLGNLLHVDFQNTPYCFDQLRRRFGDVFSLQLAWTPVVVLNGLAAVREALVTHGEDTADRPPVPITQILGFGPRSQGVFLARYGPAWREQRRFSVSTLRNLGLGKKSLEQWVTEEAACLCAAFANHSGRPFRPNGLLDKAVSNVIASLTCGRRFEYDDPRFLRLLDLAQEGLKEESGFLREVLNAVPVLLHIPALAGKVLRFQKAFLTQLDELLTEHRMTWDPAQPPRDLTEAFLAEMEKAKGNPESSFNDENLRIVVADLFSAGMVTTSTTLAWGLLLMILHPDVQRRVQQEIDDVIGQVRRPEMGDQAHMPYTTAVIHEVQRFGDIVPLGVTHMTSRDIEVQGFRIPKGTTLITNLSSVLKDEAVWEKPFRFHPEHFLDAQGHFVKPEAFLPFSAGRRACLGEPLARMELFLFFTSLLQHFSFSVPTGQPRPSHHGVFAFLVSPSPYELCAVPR

[17] = long-term administration; cited from earlier work
[18] = system: cocaine addiction; settings: cocaine addiction in humans, 9-week double-blind trial; cited from earlier work
[19] = system: addiction; settings: cocaine, nicotine, methamphetamine, heroin, and alcohol; cited from earlier work

| Structure (SMILES) | hippocampal metabolism (cocaine-induced) [1] | times more potent than vigabatrin in reducing the release of dopamine in the NAcc [2] [times] | inhibition or induction of CYP 2C8 [3] | inactivation or inhibition of Ala-AT [4] | cocaine-induced increases in striatal dopamine [5] | inhibition or induction of CYP 3A [6] | inhibition of the activity of the hERG channel [7] | margin of safety versus vigabatrin [8] | retinal toxicity liability versus vigabatrin [8] | inhibition or induction of CYP 2B6 [9] | inhibition or induction of CYP 1A [10] | duration of spasm suppression versus vigabatrin [11] | inhibition or induction of CYP 2C9 [12] | inhibition or induction of CYP 2C19 [13] | KI (inactivation) [14] [µM] | inactivation or inhibition of Asp-AT [15] | inhibition or induction of CYP 2D6 [16] | epilepsy patients with permanent vision loss [17] | patients achieving abstinence [18] | treatment of addiction in animal models [19] |
| --- | --- | --- | --- | --- | --- | --- | --- | --- | --- | --- | --- | --- | --- | --- | --- | --- | --- | --- | --- | --- |
| N[C@H]1C[C@@H](C(=O)O)CC1=C(F)F [CPP-115, (1S,3S)-3-amino-4-difluoromethylenyl-1-cyclopentanoic acid] | did not completely block | > 300 | does not inhibit or induce | not to inactivate or inhibit | blocked | does not inhibit or induce | does not inhibit | much larger | considerably lower | does not inhibit or induce | does not inhibit or induce | longer spasm suppression | does not inhibit or induce | does not inhibit or induce | 116 | not to inactivate or inhibit | does not inhibit or induce | – | – | – |
| C=CC(N)CCC(=O)O (stereo not shown) [vigabatrin] | did not completely block | – | – | – | blocked | – | – | – | – | – | – | – | – | – | – | – | – | 25-40% | up to 28% | successful |
